In patent US20210267996A1, “Compounds for inhibition of inflammation” (Children`s Medical Center Corporation, priority 2018, published 2021):

Assays:
[1] = tested on: mouse iBMDMs; assay: AIM2 inflammasome cell death, iBMDMs transfected with poly(dA:dT); format: cell-based; conditions: poly(dA:dT) transfection
[2] = tested on: HT-29 cells; assay: Necroptosis induced by TNFα, SMAC mimetic and z-VAD-fmk; format: cell-based; conditions: SMAC mimetic
Description: Inhibition was shown by cell survival, assessed by CellTiter-Glo ATP luminescence, and membrane permeabilization, assessed by uptake of the membrane-impermeable dye SYTOX Green.

[3] = tested on: LPS-induced sepsis in C57BL/6 mice; assay: LPS-induced sepsis in mice, survival; format: in vivo, mouse
Protocol: Mice. 8-week-old female C57BL/6 wild-type mice were purchased from The Jackson Laboratory and maintained at the SPF facility at Harvard Medical School. All mouse experiments were conducted using protocols approved by the Animal Care and Use Committees of Boston Children's Hospital and Harvard Medical School.
(§1) Drug administration and LPS-induced sepsis in mice. […] In the indicated group of mice in FIG. 5h, copper gluconate (0.15 mg/kg) was administered intraperitoneally 6 hr prior to the first injection of DSF. Sepsis was induced in C57BL/6 mice (8-10 weeks old) by intraperitoneal injection of LPS (E. coli O111:B4) at indicated concentrations. In some experiments, mice were treated with copper gluconate (0.15 mg/kg) or vehicle by intraperitoneal injection 5 hr before LPS challenge and then given DSF (50 mg/kg) intraperitoneally dissolved in sesame oil or vehicle 4 hr before and just before LPS challenge (15 mg/kg intraperitoneally). Peritoneal cells were collected by rinsing the peritoneal cavity with ice cold PBS containing 3% FBS 6 hr after LPS challenge. To measure cytokines, blood samples were collected by tail vein bleed 12 hr post LPS challenge and allowed to clot at room temperature. Sera obtained after centrifugation at 2,000×g for 10 min were analysed for inflammatory cytokines by ELISA.
Cell death was determined by CytoTox96 assay. […] Statistical analysis was performed using the log-rank test (In FIGS. 14, 16, 17, mice/group). […] Serum was obtained 12 hrs post LPS challenge. Shown are mean±s.d. […] Statistical analysis was performed using the log-rank test (8 mice/group).

[4] = biological target: C38A GSDMD (Homo sapiens, UniProt P57764, C38A); assay: Liposome leakage assay, C38A GSDMD plus caspase-11; format: biochemical
Chain of C38A GSDMD (P57764 whole entry C38A): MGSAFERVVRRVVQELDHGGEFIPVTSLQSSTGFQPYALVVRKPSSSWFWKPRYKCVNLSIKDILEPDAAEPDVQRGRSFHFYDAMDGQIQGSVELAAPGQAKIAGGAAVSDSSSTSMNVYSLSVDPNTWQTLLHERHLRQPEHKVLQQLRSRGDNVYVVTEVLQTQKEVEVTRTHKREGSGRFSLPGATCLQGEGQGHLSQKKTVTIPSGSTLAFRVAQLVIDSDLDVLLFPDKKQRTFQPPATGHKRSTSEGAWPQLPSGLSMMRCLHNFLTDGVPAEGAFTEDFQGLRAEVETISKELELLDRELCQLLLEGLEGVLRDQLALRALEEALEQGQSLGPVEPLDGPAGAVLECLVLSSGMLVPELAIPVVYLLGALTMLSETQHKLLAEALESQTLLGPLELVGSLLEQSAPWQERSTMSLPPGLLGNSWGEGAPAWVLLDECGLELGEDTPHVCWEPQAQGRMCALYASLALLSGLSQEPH

[5] = biological target: T1, human GSDMD-3C (Homo sapiens, UniProt P57764); assay: Liposome leakage assay, GSDMD-3C plus 3C protease; format: biochemical; conditions: GSDMD-3C plus 3C protease
T1 construct: other: GSDMD-3C plus 3C protease; fused on or other part: His6-MBP tag, removed by TEV before use; The engineered 3C site is cut in the well by 3C protease and sets free GSDMD-NT
Protocol: (§2) Liposome leakage assay: fluorogenic liposome leakage assay detects leakage of Tb^3+ from Tb^3+-loaded liposomes incubated with GSDMD and caspase-11 (See References 7 and 9). Liposome leakage was detected by an increase in fluorescence when Tb^3+ bound to dipicolinic acid (DPA) in Buffer C. […] The fluorescence intensity of the well was measured at 545 nm with an excitation of 276 nm 1 hr after addition of caspase-11 using a Perkin Elmer EnVision plate reader. The final percent inhibition was calculated as [(fluorescencetest compound−fluorescencenegative control)/(fluorescencepositive control−fluorescencenegative control)]×100, where a well with GSDMD without the test compound was used as positive control, and a well without caspase-11 was used as negative control.
(§3) [LC retention time. […] (b).
(§4) To determine the relative contribution of caspase-11 inhibition versus GSDMD inhibition by disulfiram in pore formation, the caspase cleavage site in GSDMD was replaced with the rhinovirus 3C protease site (GSDMD-3C) and the 3C protease was used instead of caspase-11 in the liposome leakage assay.

[6] = tested on: NLRP3, GSDMD and HMGB1; assay: Peritoneal macrophages of LPS-challenged mice (immunoblot); format: in vivo, mouse; conditions: 6 hrs after LPS
Protocol: as §1
Peritoneal macrophages were harvested 6 hrs later and analysed for NLRP3, GSDMD and HMGB1 by immunoblot.

[7] = tested on: caspase-1, GSDMD, and pro-IL-1β; assay: Caspase-1, GSDMD, pro-IL-1β cleavage and IL-1β secretion by immunoblot, THP-1; format: cell-based, human
[8] = biological target: T2, human GSDMD-3C (Homo sapiens, UniProt P57764); assay: Pore reconstitution on nanodiscs, negative staining EM
T2 sequence (P57764 1-271 limits assumed): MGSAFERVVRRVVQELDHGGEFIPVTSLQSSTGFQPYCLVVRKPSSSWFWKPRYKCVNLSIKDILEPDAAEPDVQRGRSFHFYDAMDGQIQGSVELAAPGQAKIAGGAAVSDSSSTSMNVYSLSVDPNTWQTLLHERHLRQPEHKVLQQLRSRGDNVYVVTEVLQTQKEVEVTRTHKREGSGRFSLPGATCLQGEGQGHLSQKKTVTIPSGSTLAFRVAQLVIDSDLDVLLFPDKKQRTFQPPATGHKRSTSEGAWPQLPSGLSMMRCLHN
Protocol: To form GSDMD pores on the nanodiscs, purified human GSDMD-3C was incubated with 3C protease in the presence of nanodiscs for 6 hrs on ice. […] For negative staining electron microscopy, a 5-μl sample was placed onto a glow-discharged carbon-coated copper grid (Electron Microscopy Sciences), washed twice with Buffer A, stained with 1% uranyl formate for 1 min, and air-dried. The grids were imaged on the Tecnai G^2 Spirit BioTWIN electron microscope and recorded with an AMT 2 k CCD camera (Harvard Medical School Electron Microscopy Facility).
3C protease cleavage of the engineered GSDMD-3C liberates an active NT fragment.

[9] = biological target: C191A GSDMD (Homo sapiens, UniProt P57764, C191A)
Chain of C191A GSDMD (P57764 whole entry C191A, the tested form may be a part): as the sequence (P57764 whole entry C38A) above, with A38C, C191A counted along it

[10] = biological target: T2, human GSDMD-3C; assay: Liposome leakage assay, GSDMD-3C plus 3C protease; format: biochemical; set-up: Human GSDMD-3C and mouse GSDMA3-3C mutants were constructed by QuikChange Mutagenesis (Agilent Technologies); fused on or other part: His6-MBP tag, removed by TEV before use; The engineered 3C site is cut in the well by 3C protease
Protocol: as §2, §3, §4

Compound | cell death triggered by the AIM2 inflammasome [1] | necroptosis [2] | survival ([3]; LPS 15 mg/kg, 50 mg/kg ip 24 and 4 hrs before, 96 hrs) | survival ([3]; LPS 25 mg/kg, 50 mg/kg ip 24 and 4 hrs before) | survival ([3]; LPS 25 mg/kg, 50 mg/kg ip post LPS, with copper gluconate 0.15 mg/kg) | survival ([3]; LPS 25 mg/kg, 50 mg/kg ip post LPS, without copper) | survival ([3]; LPS 50 mg/kg, 50 mg/kg ip 24 and 4 hrs before) | survival of Casp11−/− mice ([3]; LPS challenge) | survival of Gsdmd−/− mice ([3]; LPS challenge) | survival of Casp1−/− mice ([3]; lethal LPS challenge) | IC50 [4] [nM] | IC50 [5] [nM] | GSDMD processing in peritoneal macrophages [6] | NLRP3 priming in mice [6] | caspase-1, GSDMD, pro-IL-1β processing and IL-1β secretion ([7]; 1 μM with copper gluconate) | caspase-1, GSDMD, pro-IL-1β processing and IL-1β secretion ([7]; 1 μM without copper) | effect on already assembled pores ([8]; added after pore formation) | pore formation on nanodiscs ([8]; pretreated before adding to nanodiscs) | fold loss of liposome leakage inhibition, C191A versus WT GSDMD [9] [fold] | inhibition of leakage by GSDMD-3C plus 3C protease versus GSDMD plus caspase-11 [10]
CCN(CC)C(=S)SSC(=S)N(CC)CC [C-23, Tetraethylthiuram disulfide] | impaired cell death in a dose-dependent manner | had no effect on necroptosis | all the disulfiram-treated mice survived | 5 of 8 | 2 of 8 | died | 1 of 8 | did not significantly affect the survival | did not significantly affect the survival | protected | ~300 | 520 ± 30 | equally processed | did not inhibit NLRP3 priming in mice | completely blocked | had no effect | did not disrupt already assembled pores | completely blocked |  | 
Cc1ccc(S(=O)(=O)/C=C/C#N)cc1 [Bay 11-7082] |  |  |  |  |  |  |  |  |  |  |  |  |  |  |  |  |  |  | 2 | substantially less able to inhibit leakage
